Results on 1 molecule are retold here after patent publication US20110262502A1, “PULMONARY DELIVERY OF 17-HYDROXYPROGESTERONE CAPROATE (17-HPC)” (Prairie Pharmaceuticals LLC, priority 2010, published 2011).

A short description of data set [1]: API particle size distribution (Dv(10), Dv(50), Dv(90), Span). The data set is classed as physicochemical. The text has this:
In determining and characterizing particle size, e.g., particle size of an API (active pharmaceutical ingredient), the particle size parameters Dv(10), Dv(50) and Dv(90) may be used. Particle size measurements are preferably expressed in terms of Dv(10), Dv(50), and Dv(90), wherein Dv(10) refers to the particle size below which 10% of the volume of material exists; Dv(50) refers to the particle size below which 50% of the volume of material exists; and Dv(90) refers to the particle size below which 90% of the volume of material exists.
Referring to Table 5, experiments were performed with a suspension comprising the active pharmaceutical ingredient (the API), i.e., 17-HPC was the API in these experiments, wherein 17-HPC was present at approximately five percent (5%) w/w in water; and the suspension also comprised the surfactant Tween 80 at approximately 15% in these experiments (processing conditions conducted at Pressure=90 bar). […] Particle size measurements are expressed in terms of Dv(10), Dv(50), and Dv(90), wherein Dv(10) refers to the particle size below which 10% of the volume of material exists; Dv(50) refers to the particle size below which 50% of the volume of material exists; and Dv(90) refers to the particle size below which 90% of the volume of material exists). […]
Exemplary particle size reduction experiments, and characterization of API (i.e., 17-HPC) particle size distribution, using a suspension prepared without a surfactant. Referring to Table 7, particle size reduction of 17-HPC was observed without using any surfactant. Experiments were performed with a suspension comprising the active pharmaceutical ingredient (the API), i.e., 17-HPC in these experiments, in water and without a surfactant. FIG. 16 depicts an exemplary API particle size distribution profile (17-HPC is the active ingredient) after a spray-drying (SD) process. Referring again to FIG. 16, and also to Table 7, an exemplary 17-HPC particle size distribution profile was obtained after approximately 10 to 55 cycles of milling. API particle size was measured after spray drying (SD). Particle size measurements are expressed in terms of Dv(10), Dv(50), and Dv(90), wherein Dv(10) refers to the particle size below which 10% of the volume of material exists; Dv(50) refers to the particle size below which 50% of the volume of material exists; and Dv(90) refers to the particle size below which 90% of the volume of material exists).

The nature of data set [2]: Dynamic vapor sorption (DVS) of 17-HPC powder. The following applies: FIG. 18; increasing percent relative humidity. The class given is physicochemical. Here is the method: Dynamic vapor sorption (DVS) is a gravimetric technique that measures how quickly and how much of a solvent is absorbed by a sample, such as a dry powder absorbing water. DVS accomplishes this by varying the vapor concentration surrounding the sample and measuring the change in mass which this produces.
Analysis of 17-HPC dry powder (obtained after particle size reduction and spray drying or SD) was performed. FIG. 18 depicts exemplary results from a dynamic vapor sorption (DVS) analysis of a dry powder obtained after a spray-drying (SD) process. One particular batch (PGC2011-020PD) was selected to be analyzed by DVS. […] There was no substantive change in adsorption or desorption even with conditions of increasing percent relative humidity. Referring to FIG. 19, exemplary results are shown of XRPD analysis of a 17-HPC dry powder obtained after particle size reduction and a spray-drying (SD) process. One particular batch (PGC2011-020PD) was selected to be analyzed by XRPD.

The mark [3] stands for this setting: Table 7, powders after spray drying, bulk material for comparison.

With `CCCCCC(=O)O[C@]1(C(C)=O)CC[C@H]2[C@@H]3CCC4=CC(=O)CC[C@]4(C)[C@H]3CC[C@@]21C` [Bulk material], in data set [1] (Table 5, bulk material), the “Particle Size Dv(10)” value came out at 6.345 μm, the “Particle Size Dv(50)” value came to 56.762 μm, the “Particle Size Dv(90)” value is 307.607 μm and the “Particle Size Span” value amounted to 5.307. Moreover, in data set [1] (setting [3]), the “API particle size after SD (powders) Dv(10)” value is on record as 2.398 μm, the “API particle size after SD (powders) Dv(50)” value came to 23.610 μm, the “API particle size after SD (powders) Dv(90)” value stood at 98.799 μm and the “API particle size after SD (powders) Span” value came to 4.083. Besides, the “water uptake in DVS (percent change in weight vs RH %)” value in data set [2] is given as “neither the obtained powders nor the bulk material gained any measurable quantity of water”.
